Results from patent publication US11312676B2, “Small molecule stimulators of steroid receptor coactivator proteins and their use in the treatment of cancer” (BAYLOR COLLEGE OF MEDICINE, priority 2014, dated 2022).

Key:
Type in all cases: cell-based
PC-3 (prostate) cells = test: MTS cell viability assay, PC-3; conditions: PC-3, 48 hours
Description: (§1) Cell lines were maintained in DMEM (HeLa, MCF-7, HepG2), RPMI 1640 (H1299), or DMEM/F12 (PC-3) supplemented with 10% fetal calf serum, penicillin and streptomycin (100 U/ml). Primary mouse hepatocytes were isolated and cultured. Mouse embryonic fibroblasts (MEF) were cultured in DMEM. All cells were maintained at 37° C. under 5% CO2.
(§2) Cells were seeded in 96-well plates and allowed to reach 70% to 80% confluence. After indicated compound treatments, relative numbers of viable cells were measured by MTS assay using the Cell Titer 96 Aqueous One Solution Cell Proliferation Assay (Promega).

PGC-1α = test: Gal4-PGC-1α + pG5-LUC luciferase assay in HeLa cells; conditions: 24 hours, 2-10 μM
[1] = test system: SRC-1, SRC-2 and SRC-3 protein levels; test: Immunoblot of SRC protein levels in HeLa cells; conditions: 24 hours
Description: For Western blotting, cells were harvested and lysed in lysis buffer (50 mM Tris, pH 8.0, 150 mM NaCl, 10% glycerol, 0.5% NP40, protease and phosphatase inhibitor) and then centrifuged for 15 min at 14000 rpm at 4° C. After total cellular protein concentration was determined by Bradford analysis (Bio-Rad, Hercules, Calif.), protein lysates were loaded onto and resolved by sodium dodecyl sulfate-polyacrylamide gel electrophoresis (SDS-PAGE) and transferred to PVDF membranes (BioRad) which were blocked and incubated with indicated antibodies. For immunoprecipitation, 10 μg of plasmid encoding FLAG-SRC-3 was transfected into HeLa cells with 90% confluence in one 10 cm plate with lipofectamine 2000 (Invitrogen). Twenty-four hours after transfection, the cells were treated with MCB-613 for one hour and lysed with lysis buffer (25 mM Tris-Cl pH7.5, 150 mM NaCl, 5% glycerol, 1 mM EDTA, 1% Triton X-100, protease and phosphatase inhibitor) at 4° C. After a 30-second sonication, the lysate was cleared by centrifugation at 14000 rpm at 4° C. for 15 minutes and was incubated with anti-Flag-M2 agarose affinity gel (Sigma) for four hours. The agarose gel was washed four times with washing buffer (25 mM Tris pH 8.0, 150 mM NaCl, 1 mM EDTA, 1% Triton X-100) and resuspended with SDS loading buffer for Western blotting.

MCF-7 (breast) cells = test: MTS cell viability assay, MCF-7; conditions: MCF-7, 48 hours
Description: as §1, §2

SRC-2 = biological target: T1, SRC-2 (Homo sapiens, UniProt Q15596); test: Gal4 luciferase reporter assay (pBIND-SRC-2 + pG5-LUC) in HeLa cells; conditions: 24-hour treatment, 5-8 μM, maximum over SRC-1/-2/-3
T1 construct: expressed in transfected cells; host or cells: HeLa
T1 sequence (Q15596 whole entry, the tested form may be a part): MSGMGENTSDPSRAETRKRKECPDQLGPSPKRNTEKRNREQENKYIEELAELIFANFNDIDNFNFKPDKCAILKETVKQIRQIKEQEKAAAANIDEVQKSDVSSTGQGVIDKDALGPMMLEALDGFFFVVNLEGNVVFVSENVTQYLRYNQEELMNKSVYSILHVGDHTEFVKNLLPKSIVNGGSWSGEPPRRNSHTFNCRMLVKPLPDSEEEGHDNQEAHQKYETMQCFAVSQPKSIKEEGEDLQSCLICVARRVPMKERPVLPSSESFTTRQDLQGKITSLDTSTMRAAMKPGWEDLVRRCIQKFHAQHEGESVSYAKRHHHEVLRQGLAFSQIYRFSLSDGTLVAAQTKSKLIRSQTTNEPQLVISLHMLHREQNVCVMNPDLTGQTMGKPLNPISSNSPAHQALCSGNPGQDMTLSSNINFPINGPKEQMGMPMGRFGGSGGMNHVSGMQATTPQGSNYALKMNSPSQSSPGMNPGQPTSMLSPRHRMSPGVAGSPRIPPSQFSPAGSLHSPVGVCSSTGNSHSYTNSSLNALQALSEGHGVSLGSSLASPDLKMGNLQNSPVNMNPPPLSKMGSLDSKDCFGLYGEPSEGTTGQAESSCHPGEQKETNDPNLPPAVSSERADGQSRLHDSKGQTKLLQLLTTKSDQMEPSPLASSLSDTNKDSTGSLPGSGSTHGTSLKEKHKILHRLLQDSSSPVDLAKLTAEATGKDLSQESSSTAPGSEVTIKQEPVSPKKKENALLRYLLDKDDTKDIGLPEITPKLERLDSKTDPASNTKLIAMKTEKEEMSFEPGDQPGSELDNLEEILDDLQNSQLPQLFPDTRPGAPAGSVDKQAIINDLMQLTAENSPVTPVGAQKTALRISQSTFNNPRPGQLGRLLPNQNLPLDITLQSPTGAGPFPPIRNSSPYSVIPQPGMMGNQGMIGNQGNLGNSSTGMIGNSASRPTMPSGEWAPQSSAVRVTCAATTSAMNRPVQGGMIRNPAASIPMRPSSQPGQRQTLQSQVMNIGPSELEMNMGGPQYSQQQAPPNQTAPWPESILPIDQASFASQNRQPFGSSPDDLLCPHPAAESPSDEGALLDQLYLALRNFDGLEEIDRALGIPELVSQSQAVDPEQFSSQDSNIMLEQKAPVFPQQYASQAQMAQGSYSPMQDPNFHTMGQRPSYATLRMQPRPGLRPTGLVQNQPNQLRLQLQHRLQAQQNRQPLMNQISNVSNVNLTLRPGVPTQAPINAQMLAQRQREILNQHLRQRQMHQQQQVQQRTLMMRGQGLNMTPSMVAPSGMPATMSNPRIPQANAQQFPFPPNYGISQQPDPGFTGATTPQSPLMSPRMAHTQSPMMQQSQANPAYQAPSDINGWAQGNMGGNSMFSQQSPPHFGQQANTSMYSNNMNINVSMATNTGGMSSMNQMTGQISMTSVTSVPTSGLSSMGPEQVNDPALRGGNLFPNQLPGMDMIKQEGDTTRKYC
Description: The constructs expressing the Gal4 responsive luciferase reporter (pG5-luc), Gal4 DBD fusion with SRC-1, […] (pBIND-SRC-1/-2/-3), MMP2 or MMP13 promoter driven luciferase reporter (MMP2-luc, MMP13-luc) were prepared. Twenty-four hours before transfection, HeLa cells were plated in 24-well dishes. The indicated expression plasmids were transfected into cells using Lipofectamine 2000 according to the manufacturer's instructions.
After various compound treatments, cells were lysed in luciferase lysis buffer and assayed for luciferase activity using the ONE-Glo luciferase assay system (Promega, Madison, Wis.). All luciferase activities were normalized to protein concentration determined by Bradford assay (Bio-Rad, Hercules, Calif.).

CCC1CC(=Cc2cccnc2)C(=O)C(=Cc2cccnc2)C1 (centres unmarked) [MCB-613, 4-Ethyl-2,6-bis-pyridin-3-ylmethylene-cyclohexanone]
cytotoxicity, cell viability (PC-3 (prostate) cells): efficiently kill | stimulation of GAL4-PGC-1α coactivator fusion protein (PGC-1α): failing to stimulate | SRC-1, SRC-2 and SRC-3 protein levels [1]: decreases | cytotoxicity, cell viability (MCF-7 (breast) cells): efficiently kill | induction in the activity of pBIND-SRC-2 (SRC-2): ≤ 160 fold
